Test results taken from patent US12729377B2, “RNAi agents and compositions for inhibiting expression of angiopoietin-like 3 (ANGPTL3), and methods of use” (Arrowhead Pharmaceuticals, Inc., priority 2017, dated 2026).
In the oligonucleotide strings, read from the 5' end, every base follows the letter of its sugar. An asterisk marks phosphorothioate; unmarked linkages are phosphodiester. Other units and linkages are bracketed, terminal groups are in braces. A string of capitals states the bases alone. {NAG37} = tridentate N-acetyl-galactosamine targeting ligand, structure (NAG37)s; [invAb] = inverted abasic unit; m = 2'-O-methyl; f = 2'-fluoro

Columns and labels:
ANGPTL3 gene [1] = experiment: Example 3: serum HDL in mice; type: in vivo
Method: (§1) To assess the in vivo activity of ANGPTL3 RNAi agents that are designed to target positions 921 and 922 on the ANGPTL3 gene, six- to eight-week-old female C57bl/6 mice were used. Pre-dose serum samples were taken at day −1 after a four hour fast. At day 1, each mouse was given a single subcutaneous administration of 200 μl containing either 1 mg/kg (mpk) of an ANGPTL3 RNAi agent in D5W (dextrose in 5% water), or control (D5W) with no RNAi agent, according to the dosing groups recited in Table 12.
(§2) Each of the RNAi agents included a modified sequence and an N-acetyl-galactosamine-containing targeting ligand conjugated to the 5′ terminal end of the sense strand. (See Tables 3, 4, and 5 for modified sequences and targeting ligand structures). The injections were performed between the skin and muscle (i.e. subcutaneous injections) into the loose skin over the neck and shoulder area. Three (3) mice in each group were tested (n=3). […] Mice were fasted for four hours prior to each collection. ANGPTL3 protein levels in serum were measured by ELISA assay (R&D Systems), according to the manufacturer's recommendations. Triglycerides, high-density lipoprotein (HDL), and total cholesterol in serum were measured on a Cobas® Integra 400 (Roche Diagnostics), according to the manufacturer's recommendations.
(§3) The ANGPTL3 protein levels, triglyceride levels, HDL levels, and total cholesterol levels for each animal were normalized. For normalization, the level of ANGPTL3 protein, triglyceride, HDL, and total cholesterol, respectively, for each animal at a time point, was divided by the pre-treatment level of expression in that animal (in this case at day −1) to determine the ratio of expression “normalized to pre-treatment.” Expression at a specific time point was then normalized to the D5W control group by dividing the “normalized to pre-treatment” ratio for an individual animal by the mean “normalized to pretreatment” ratio of all mice in the D5W control group.

ANGPTL3 gene [2] = experiment: Example 3: serum triglycerides in mice; type: in vivo
Method: as §1, §2, §3

ANGPTL3 protein = experiment: Example 3: serum ANGPTL3 protein by ELISA in mice; type: in vivo, C57bl/6 mice; details: 1.0 mg/kg single subcutaneous dose on day 1, serum, female C57bl/6 mice
Method: as §1, §2, §3

ANGPTL3 gene [3] = experiment: Example 3: serum total cholesterol in mice; type: in vivo
Method: as §1, §2, §3

ANGPTL3 gene [4] = experiment: Example 2: serum total cholesterol in mice; type: in vivo
Method: To assess the in vivo activity of ANGPTL3 RNAi agents that are designed to target different positions on the ANGPTL3 gene, six- to eight-week-old female C57bl/6 mice were used. Pre-dose serum samples were taken at day −1 after a four hour fast. At day 1, each mouse was given a single subcutaneous administration of 200 μl containing either 3 mg/kg (mpk) of an ANGPTL3 RNAi agent in D5W (dextrose in 5% water), or control (D5W) with no RNAi agent, according to the dosing groups recited in Table 7.
(§4) Each of the RNAi agents included a modified sequence and an N-acetyl-galactosamine-containing targeting ligand conjugated to the 5′ terminal end of the sense strand. (See Tables 3, 4, and 5 for modified sequences and targeting ligand structures). The injections were performed between the skin and muscle (i.e. subcutaneous injections) into the loose skin over the neck and shoulder area. Three (3) mice in each group were tested (n=3). Serum was collected on days 8, 13, 22, 29, and day 36 (for Groups 1 and 5-11 only). Mice were fasted for four hours prior to each collection. ANGPTL3 protein levels in serum were measured by ELISA assay (R&D Systems), according to the manufacturer's recommendations. Triglycerides, high-density lipoprotein (HDL), and total cholesterol in serum were measured on a Cobas® Integra 400 (Roche Diagnostics), according to the manufacturer's recommendations.
as §3

ANGPTL3 gene [5] = experiment: Example 4: serum total cholesterol in mice; type: in vivo, C57bl/6 mice
Method: (§5) To assess the in vivo activity of ANGPTL3 RNAi agents that are designed to target additional positions on the ANGPTL3 gene, six- to eight-week-old female C57bl/6 mice were used. Pre-dose serum samples were taken at day −1 after a four hour fast. At day 1, each mouse was given a single subcutaneous administration of 200 μl containing either 1 mg/kg (mpk) or 0.5 mg/kg (mpk) of an ANGPTL3 RNAi agent in D5W (dextrose in 5% water), or control (D5W) with no RNAi agent, according to the dosing groups recited in Table 17.
as §4, with “15,” for “13,”, “43 (Groups 1-3, 9,” for “36 (for Groups 1”, “11-13” for “5-11”
as §3

ANGPTL3 gene [6] = experiment: Example 4: serum LDL in mice; type: in vivo, C57bl/6 mice; details: 1.0 mg/kg single SC injection on day 1, serum, n=3
Method: as §5
as §4, with “15,” for “13,”, “43 (Groups 1-3, 9,” for “36 (for Groups 1”, “11-13” for “5-11”
as §3

[7] = Day 8, 1.0 mg/kg single subcutaneous dose on day 1, female C57bl/6 mice
[8] = Day 15, 1.0 mg/kg single subcutaneous dose on day 1, female C57bl/6 mice
[9] = Day 22, 1.0 mg/kg single subcutaneous dose on day 1, female C57bl/6 mice
[10] = Day 29, 1.0 mg/kg single subcutaneous dose on day 1, female C57bl/6 mice

| Substance | Avg HDL (Average HDL Normalized to Pre-Treatment and Control) (ANGPTL3 gene [1]; [7]) | Avg HDL (Average HDL Normalized to Pre-Treatment and Control) (ANGPTL3 gene [1]; [8]) | Avg HDL (Average HDL Normalized to Pre-Treatment and Control) (ANGPTL3 gene [1]; [9]) | Avg HDL (Average HDL Normalized to Pre-Treatment and Control) (ANGPTL3 gene [1]; [10]) | Avg TG (Average Triglycerides Normalized to Pre-Treatment and Control) (ANGPTL3 gene [2]; [7]) | Avg TG (Average Triglycerides Normalized to Pre-Treatment and Control) (ANGPTL3 gene [2]; [8]) | Avg TG (Average Triglycerides Normalized to Pre-Treatment and Control) (ANGPTL3 gene [2]; [9]) | Avg TG (Average Triglycerides Normalized to Pre-Treatment and Control) (ANGPTL3 gene [2]; [10]) | Avg ANGPTL3 (Average ANGPTL3 Protein Normalized to Pre-Treatment and Control) (ANGPTL3 protein; Day 8) | Avg ANGPTL3 (Average ANGPTL3 Protein Normalized to Pre-Treatment and Control) (ANGPTL3 protein; Day 15) | Avg ANGPTL3 (Average ANGPTL3 Protein Normalized to Pre-Treatment and Control) (ANGPTL3 protein; Day 22) | Avg ANGPTL3 (Average ANGPTL3 Protein Normalized to Pre-Treatment and Control) (ANGPTL3 protein; Day 29) | Avg Total Chol (Average Total Cholestrol Normalized to Pre-Treatment and Control) (ANGPTL3 gene [3]; [7]) | Avg Total Chol (Average Total Cholestrol Normalized to Pre-Treatment and Control) (ANGPTL3 gene [3]; [8]) | Avg Total Chol (Average Total Cholestrol Normalized to Pre-Treatment and Control) (ANGPTL3 gene [3]; [9]) | Avg Total Chol (Average Total Cholestrol Normalized to Pre-Treatment and Control) (ANGPTL3 gene [3]; [10]) | also measured |
| --- | --- | --- | --- | --- | --- | --- | --- | --- | --- | --- | --- | --- | --- | --- | --- | --- | --- |
| AD05307: RNAi agent duplex: antisense AM07001-AS, sense AM07000-SS (chain 1 mU*fU*mU*fGmAfAmUfUmAfAmUfGmUfCmCfAmUfGmGmG*mC; chain 2 {NAG37}*[invAb]*mGmCmCmCmAmUmGmGfAfCfAmUmUmAmAmUmUmCmAmAmA*[invAb]) | 0.916 | 0.856 | 0.913 | 1.053 | 0.786 | 0.692 | 0.903 | 0.852 | 0.323 | 0.311 | 0.346 | 0.486 | 0.940 | 0.840 | 0.948 | 1.088 | Avg Total Chol (Average Total Cholestrol Normalized to Pre-Treatment and Control) (ANGPTL3 gene [4]; Day 8, 3.0 mg/kg single subcutaneous dose on day 1, female C57bl/6 mice): 0.649; Avg Total Chol (Average Total Cholestrol Normalized to Pre-Treatment and Control) (ANGPTL3 gene [4]; Day 13, 3.0 mg/kg single subcutaneous dose on day 1, female C57bl/6 mice): 0.570; Avg Total Chol (Average Total Cholestrol Normalized to Pre-Treatment and Control) (ANGPTL3 gene [4]; Day 22, 3.0 mg/kg single subcutaneous dose on day 1, female C57bl/6 mice): 0.628; Avg Total Chol (Average Total Cholestrol Normalized to Pre-Treatment and Control) (ANGPTL3 gene [4]; Day 29, 3.0 mg/kg single subcutaneous dose on day 1, female C57bl/6 mice): 0.753; Avg Total Chol (Average Total Cholestrol Normalized to Pre-Treatment and Control) (ANGPTL3 gene [4]; Day 36, 3.0 mg/kg single subcutaneous dose on day 1, female C57bl/6 mice): 0.755 |
| AD05418: RNAi agent duplex: antisense AM07159-AS, sense AM07158-SS (antisense mU*fU*mU*fGmAfAmUfUmAfAmUfGmUfCmCfAmUfGmGfG*mU; sense {NAG37}*[invAb]*mAmCmCmCmAmUmGmGfAfCfAmUmUmAmAmUmUmCmAmAmA*[invAb]) | 0.766 | 0.823 | 0.910 | 0.916 | 0.718 | 0.791 | 0.855 | 0.881 | 0.236 | 0.290 | 0.394 | 0.517 | 0.783 | 0.842 | 0.916 | 0.953 | Avg Total Chol, normalized to pre-treatment and control (ANGPTL3 gene [5]; Day 8, 1.0 mg/kg single SC injection on day 1, n=3): 0.818; Avg Total Chol, normalized to pre-treatment and control (ANGPTL3 gene [5]; Day 15, 1.0 mg/kg single SC injection on day 1, n=3): 0.761; Avg Total Chol, normalized to pre-treatment and control (ANGPTL3 gene [5]; Day 22, 1.0 mg/kg single SC injection on day 1, n=3): 0.915; Avg Total Chol, normalized to pre-treatment and control (ANGPTL3 gene [5]; Day 29, 1.0 mg/kg single SC injection on day 1, n=3): 0.853; Avg Total Chol, normalized to pre-treatment and control (ANGPTL3 gene [5]; Day 43, 1.0 mg/kg single SC injection on day 1, n=3): 1.002; Avg LDL, normalized to pre-treatment and control (ANGPTL3 gene [6]; Day 8): 1.044; Avg LDL, normalized to pre-treatment and control (ANGPTL3 gene [6]; Day 15): 0.841; Avg LDL, normalized to pre-treatment and control (ANGPTL3 gene [6]; Day 22): 1.142; Avg LDL, normalized to pre-treatment and control (ANGPTL3 gene [6]; Day 29): 0.966; Avg LDL, normalized to pre-treatment and control (ANGPTL3 gene [6]; Day 43): 0.921 |
